Reference: US20220184086A1, “PLK1 INHIBITORS AND PSA LEVELS IN PROSTATE CANCER” (Cardiff Oncology, Inc., priority 2019, published 2022)
Like-named read-outs stand apart in the source and are kept apart here.

Columns and labels:
[1] = biological target: T1, CYP1A2 (Homo sapiens, UniProt P05177); test: Inhibition of human cytochrome P450s, human liver microsomes; type: in vitro ADME
T1 construct: was investigated using human liver microsomes; from tissue; host or cells: human liver microsomes
T1 sequence (P05177 1-516): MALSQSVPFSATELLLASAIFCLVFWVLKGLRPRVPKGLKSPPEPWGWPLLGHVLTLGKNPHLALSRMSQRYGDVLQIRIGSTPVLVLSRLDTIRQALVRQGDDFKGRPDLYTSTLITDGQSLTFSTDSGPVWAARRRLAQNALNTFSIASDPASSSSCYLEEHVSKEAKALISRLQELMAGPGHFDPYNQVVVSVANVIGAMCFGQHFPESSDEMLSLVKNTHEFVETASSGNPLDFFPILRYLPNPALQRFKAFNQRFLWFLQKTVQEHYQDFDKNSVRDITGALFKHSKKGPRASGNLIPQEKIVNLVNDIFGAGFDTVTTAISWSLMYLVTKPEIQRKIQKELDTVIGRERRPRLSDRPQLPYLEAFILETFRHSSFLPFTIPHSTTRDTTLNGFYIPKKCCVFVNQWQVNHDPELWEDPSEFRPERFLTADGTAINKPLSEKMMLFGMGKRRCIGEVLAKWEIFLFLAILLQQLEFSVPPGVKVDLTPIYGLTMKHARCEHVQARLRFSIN

[2] = biological target: T2, CYP2C8 (Homo sapiens, UniProt P10632); test: as above; type: in vitro ADME
T2 construct: was investigated using human liver microsomes; from tissue; host or cells: human liver microsomes
T2 sequence (P10632 1-490): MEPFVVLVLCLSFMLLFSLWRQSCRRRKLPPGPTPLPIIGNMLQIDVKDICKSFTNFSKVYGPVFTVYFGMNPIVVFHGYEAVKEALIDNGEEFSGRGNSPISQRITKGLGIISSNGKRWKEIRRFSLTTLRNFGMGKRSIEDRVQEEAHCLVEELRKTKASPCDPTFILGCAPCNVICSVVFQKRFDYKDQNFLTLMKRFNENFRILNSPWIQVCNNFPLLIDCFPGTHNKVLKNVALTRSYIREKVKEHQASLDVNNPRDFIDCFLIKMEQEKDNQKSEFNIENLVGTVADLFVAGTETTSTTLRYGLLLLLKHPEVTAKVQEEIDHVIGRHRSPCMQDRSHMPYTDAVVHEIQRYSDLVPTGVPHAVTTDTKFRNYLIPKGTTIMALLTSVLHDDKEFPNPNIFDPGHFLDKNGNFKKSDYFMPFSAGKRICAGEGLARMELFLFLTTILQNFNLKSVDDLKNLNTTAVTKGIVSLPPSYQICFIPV

[3] = biological target: T3, CYP2C9 (Homo sapiens, UniProt P11712); test: as above; type: in vitro ADME; settings: Diclofenac 4-hydroxylation, mean ± SEM
T3 construct: was investigated using human liver microsomes; from tissue; host or cells: human liver microsomes

[4] = biological target: T4, CYP2C19 (Homo sapiens, UniProt P33261); test: as above; type: in vitro ADME; settings: Mephenytoin 4-hydroxylation, mean ± SEM
T4 construct: was investigated using human liver microsomes; from tissue; host or cells: human liver microsomes

[5] = biological target: T5, CYP2D6 (Homo sapiens, UniProt P10635); test: as above; type: in vitro ADME; settings: Bufuralol 1-hydroxylation, mean ± SEM
T5 construct: was investigated using human liver microsomes; from tissue; host or cells: human liver microsomes

[6] = biological target: T6, CYP3A4 (Homo sapiens, UniProt P08684); test: as above; type: in vitro ADME; settings: mean ± SEM
T6 construct: was investigated using human liver microsomes; from tissue; host or cells: human liver microsomes

[7] = Pharmacokinetics from the prior phase 1 trial; type: in vivo; settings: 24 mg/m^2 dose
Text: This is consistent with the observed downward changes of PSA values for patients shown above.

[8] = tested on: circulating tumor cells (CTC); test: Phase 2 study: circulating tumor cell (CTC) evaluation; type: in vivo, human; settings: for CTC Fold Change: C1D1 to C5D1; for CTC Count (C5D1): onvansertib+abiraterone
Method: Circulating tumor cell (CTC) evaluation, reported as favorable or unfavorable (<5 vs.≥CTC/7.5 ml of blood), is shown in FIG. 8. At baseline, 25 (78%) patients had unfavorable CTC count with median of 19 CTC/7.5 ml. Ten of the unfavorable patients were re-analyzed after 12 weeks of treatment.

[9] = Phase 2 study Arm A: absolute neutrophil counts (ANC); type: in vivo, human; settings: 7 patients plotted, patients 02-002 and 02-005
Method: To evaluate this further, neutrophil levels were assessed for patients within Arm A of the current trial. Absolute neutrophil counts (ANC) are plotted in FIG. 3 for 7 patients, with ANC 1.5 indicated as the threshold for Grade 2 (CTCAE version 4.03). Two patients experienced ≥Grade 2 neutropenia after the first cycle of treatment (02-002 and 02-005).

[10] = tested on: patients with metastatic castration-resistant prostate cancer (mCRPC)
[11] = tested on: cell lines, both from solid as well as hematologic tumors; settings: large number of cell lines; cited from earlier work
[12] = tested on: xenograft tumor; settings: mice, oral administration, well tolerated doses; cited from earlier work
[13] = rodent and nonrodent species; cited from earlier work
[14] = tested on: adult patients with advanced/metastatic solid tumors; settings: cited from earlier work
[15] = ten patients with unfavorable baseline CTC re-analyzed after 12 weeks of treatment

T6 sequence (P08684 whole entry): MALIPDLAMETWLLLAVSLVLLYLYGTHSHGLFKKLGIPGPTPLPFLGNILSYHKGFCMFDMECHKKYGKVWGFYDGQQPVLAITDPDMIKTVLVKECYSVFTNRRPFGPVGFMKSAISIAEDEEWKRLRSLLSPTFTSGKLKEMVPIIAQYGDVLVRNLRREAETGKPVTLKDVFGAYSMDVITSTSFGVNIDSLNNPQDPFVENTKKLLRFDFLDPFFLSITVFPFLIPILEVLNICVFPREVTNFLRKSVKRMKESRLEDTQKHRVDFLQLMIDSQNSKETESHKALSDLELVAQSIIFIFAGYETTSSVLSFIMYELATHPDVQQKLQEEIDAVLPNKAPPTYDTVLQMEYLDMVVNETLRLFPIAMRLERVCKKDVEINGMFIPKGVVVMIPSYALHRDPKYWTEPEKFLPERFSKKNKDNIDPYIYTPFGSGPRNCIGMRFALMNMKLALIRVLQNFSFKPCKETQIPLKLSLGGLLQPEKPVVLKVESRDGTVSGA
T5 sequence (P10635 whole entry): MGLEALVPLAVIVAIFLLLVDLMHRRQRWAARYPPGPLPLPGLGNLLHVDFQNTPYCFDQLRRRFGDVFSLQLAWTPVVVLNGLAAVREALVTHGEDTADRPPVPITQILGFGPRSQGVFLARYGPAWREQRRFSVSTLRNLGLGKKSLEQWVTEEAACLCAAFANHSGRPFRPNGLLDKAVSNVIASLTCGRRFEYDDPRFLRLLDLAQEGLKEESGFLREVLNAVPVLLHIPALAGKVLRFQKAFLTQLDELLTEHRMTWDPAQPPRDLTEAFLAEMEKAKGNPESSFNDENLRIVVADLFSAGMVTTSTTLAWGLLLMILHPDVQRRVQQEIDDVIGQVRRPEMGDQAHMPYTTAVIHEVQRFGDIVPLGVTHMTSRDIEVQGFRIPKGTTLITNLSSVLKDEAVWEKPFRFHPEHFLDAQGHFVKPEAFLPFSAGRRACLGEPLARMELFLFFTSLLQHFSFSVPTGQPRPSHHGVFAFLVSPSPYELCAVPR
T3 sequence (P11712 whole entry): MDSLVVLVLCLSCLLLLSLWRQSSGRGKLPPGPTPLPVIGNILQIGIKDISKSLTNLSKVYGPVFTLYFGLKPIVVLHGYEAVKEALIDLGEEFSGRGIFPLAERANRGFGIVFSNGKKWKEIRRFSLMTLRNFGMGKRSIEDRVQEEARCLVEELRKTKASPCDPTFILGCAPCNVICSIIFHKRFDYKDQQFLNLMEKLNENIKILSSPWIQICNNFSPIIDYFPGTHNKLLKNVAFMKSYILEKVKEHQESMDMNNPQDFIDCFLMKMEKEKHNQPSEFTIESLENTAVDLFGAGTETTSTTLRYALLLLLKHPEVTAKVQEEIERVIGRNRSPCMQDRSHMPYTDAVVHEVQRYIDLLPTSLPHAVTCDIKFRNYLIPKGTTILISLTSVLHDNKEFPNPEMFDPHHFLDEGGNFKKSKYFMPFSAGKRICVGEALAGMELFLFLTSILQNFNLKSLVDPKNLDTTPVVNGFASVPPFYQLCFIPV
T4 sequence (P33261 whole entry): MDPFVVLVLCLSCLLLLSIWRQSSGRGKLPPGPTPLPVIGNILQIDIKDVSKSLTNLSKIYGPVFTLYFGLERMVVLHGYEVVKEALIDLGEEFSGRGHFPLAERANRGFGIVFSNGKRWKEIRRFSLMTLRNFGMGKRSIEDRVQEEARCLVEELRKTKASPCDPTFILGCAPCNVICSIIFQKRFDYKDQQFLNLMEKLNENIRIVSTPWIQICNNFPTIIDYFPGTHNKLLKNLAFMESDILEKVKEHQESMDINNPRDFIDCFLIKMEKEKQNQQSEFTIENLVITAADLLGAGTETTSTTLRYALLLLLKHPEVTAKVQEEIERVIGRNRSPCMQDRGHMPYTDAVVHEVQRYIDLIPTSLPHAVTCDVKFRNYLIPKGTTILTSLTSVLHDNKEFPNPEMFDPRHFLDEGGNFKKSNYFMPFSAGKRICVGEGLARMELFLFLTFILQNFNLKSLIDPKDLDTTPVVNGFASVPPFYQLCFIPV

CN1CCN(c2ccc(OC(F)(F)F)c(Nc3ncc4c(n3)-c3c(c(C(N)=O)nn3CCO)CC4)c2)CC1 [onvansertib, 1-(2-hydroxyethyl)-8-{[5-(4-methylpiperazin-1-yl)-2-(trifluoromethoxy)phenyl]amino}-4,5-dihydro-1H-pyrazolo[4,3-h]quinazoline-3-carboxamide]
inhibitory effects against CYP1A2 [1]: No significant inhibitory effects
IC50 ([1]; Tacrine 1-hydroxylation): > 100 µM
IC50 [2]: 20.2 ± 1.6 µM
IC50 [3]: 20.4 ± 3.2 µM
IC50 [4]: 36.9 ± 15.7 µM
IC50 [5]: 26.8 ± 5.4 µM
IC50 ([6]; Midazolam l′-hydroxylation): 66.2 ± 4 µM
IC50 ([6]; Testosterone 6β-hydroxylation): 52.7 ± 9.8 µM
time at which the amount of onvansertib is below the 10×IC50 value [7]: 160 h
concentration at 290 h ([7]; human, plasma, oral, 0.1 ng/ml is the limit of quantitation, read-out: drug concentrations at 290 hours (˜12 days)): < 0.1 ng/mL
CTC Fold Change ([8]; patient 02-003): 17.9
CTC Count (C5D1) ([8]; patient 02-003, CTC count at C1D1 4.4): 78.6
CTC Fold Change ([8]; patient 02-007): 6.9
CTC Count (C5D1) ([8]; patient 02-007, CTC count at C1D1 2.5): 17.3
CTC Fold Change ([8]; patient 03-004): 3.0
CTC Count (C5D1) ([8]; patient 03-004, CTC count at C1D1 0.4): 1.2
CTC Fold Change ([8]; patient 03-009): 1.5
CTC Count (C5D1) ([8]; patient 03-009, CTC count at C1D1 3.7): 5.4
CTC Fold Change ([8]; patient 03-013): 1.4
CTC Count (C5D1) ([8]; patient 03-013, CTC count at C1D1 2.2): 3.0
median time on treatment ([8]; patients with decrease CTC (n=5), to-date): 7 months
median time on treatment ([8]; patients with increase CTC (n=5)): 5 months
patients converted from unfavorable to favorable CTC level (<5 CTC/7.5 ml) [8, 15]: 40%
patients with a ≥80% CTC decrease [8, 15]: 50%
patients with no detectable CTC [8, 15]: 30%
patients with ≥Grade 2 neutropenia after the first cycle [9]: Two
patients with disease stabilization after 5 or more treatment cycles ([10]; 03-013 (Arm A) and 01-024 (Arm B)): two
initial PSA stabilization or decrease in AR-V7+ subjects ([10]; AR-V7+ subjects (n=4), August 2019): all
AR-V7 positive patients achieving the primary endpoint of stable disease ([10]; AR-V7 positive patients who completed 3 months of treatment): Three of 4
initial PSA stabilization or decrease in AR-V7 positive patients ([10]; AR-V7 positive patients who completed at least 1 cycle (n=5)): all
patients achieving the efficacy endpoint (PSA stabilization) ([10]; Arm A (n=14)): 5 patients
patients remaining on treatment for >1 year ([10]; Arm A (n=14)): 2 patients
patients with SD or PR at 12 weeks ([10]; Arm A (n=14), 8 of 14): 57%
patients who have or had progression-free survival ([10]; Arm A, 3 of 14): 21%
PSA values at day 8 relative to baseline ([10]; Arm A, after dosing on days 1-5, with abiraterone and prednisone, then increase until next cycle): go down
subjects with initial disease stabilization or reduction, based on PSA levels ([10]; Arm B): 3 subjects
patients achieving the efficacy endpoint (PSA stabilization) ([10]; Arm B (n=5)): 3 patients
patients with SD at 12 weeks ([10]; Arm B (n=5), 4 of 5): 80%
patients who have or had progression-free survival of >7 months ([10]; Arm B, 3 of 5): 60%
tumor shrinkage by CT scan at the end of the study ([10]; Patient 03-013 (AR-V7), Arm A): ~30%
PSA level increase after onvansertib was added ([10]; Patient 03-013 (AR-V7), Arm A, 84 days, with abiraterone/prednisone): 8.4%
PSA level above the baseline (C1D1) PSA level ([10]; Patient 03-013, Arm A, into the fifth cycle): below 25%
patients with decreases in PSA levels ([10]; after 1 cycle of treatment with addition of onvansertib, eighteen out of 25): 72%
AR-V7+ patients who met the primary efficacy endpoint ([10]; of AR-V7+ subjects (n=4), 03-013, 01-024): Two
patients confirmed AR-V7+ that have shown a PSA response ([10]; patients who completed 4 cycles (12 weeks), onvansertib added to abiraterone): 2 of 6
activity in proliferation assays [11]: low nanomolar activity
xenograft tumor growth [12]: inhibits xenograft tumor growth
oral bioavailability [13]: good oral bioavailability
DLTs observed ([14]; 36 mg/m^2/day, four patients treated): two
patients who developed DLTs ([14]; 48 mg/m^2/day): 2 of 3
dose-limiting toxicities (DLT) ([14]; first 3 dose levels (6, 12, and 24 mg/m^2/day)): No DLTs
outcome of the one evaluable patient with prostate cancer ([14]; in vivo): disease progression
primary toxicities ([14]; in vivo): thrombocytopenia and neutropenia
best observed treatment response: disease stabilization ([14]; of the 16 evaluable patients): 5 patients
maximum tolerated dose (MTD) ([14]; oral, 5 consecutive days every 3 weeks): 24 mg/m^2/day
recovery of hematologic toxicities ([14]; thrombocytopenia and neutropenia, reversible): ≤ 3 weeks
